Measured values reported in patent publication US11685904B2 (priority 2019, dated 2023).
“Also recorded” adds a separate entry of the source.

Columns and labels:
[1] = system: vaccinia virus expressing the TK.007 HSV-TK variant (IGV-077); set-up: species or system mice; details: mouse, in vivo
[2] = system: vaccinia virus expressing the TK.007 HSV-TK variant (IGV-035); set-up: species or system BALB/c mice; details: mouse, in vivo

Nc1nc(O)c2ncn(COC(CO)CO)c2n1 [ganciclovir]
virus replication in tumors (plaque assay) [1]: significantly reduced; also recorded: completely inhibited | virus-mediated GFP expression in tumors (immunohistochemistry) [1]: Low levels; also recorded: no virus-mediated GFP expression was detected | average lesion size compared to the vehicle (no vaccinia virus) group [2]: comparable to the group treated with vehicle | healing of topical lesions caused by vaccinia virus [2]: healed faster | lesion size compared to the non-treated group [2]: significantly smaller | virus shedding from the tail scarification site [2]: reduced virus shedding
